Article PMC6977461 (Chemical Science, 2019)
Where two headings read alike, the source gives them in different places.

Biological target: T1, mouse GLP-1 receptor (Mus musculus, UniProt O35659)
T1 construct: βTC6 cells which express GLP-1R endogenously; host or cells: βTC6 cells
T1 sequence (O35659 22-463): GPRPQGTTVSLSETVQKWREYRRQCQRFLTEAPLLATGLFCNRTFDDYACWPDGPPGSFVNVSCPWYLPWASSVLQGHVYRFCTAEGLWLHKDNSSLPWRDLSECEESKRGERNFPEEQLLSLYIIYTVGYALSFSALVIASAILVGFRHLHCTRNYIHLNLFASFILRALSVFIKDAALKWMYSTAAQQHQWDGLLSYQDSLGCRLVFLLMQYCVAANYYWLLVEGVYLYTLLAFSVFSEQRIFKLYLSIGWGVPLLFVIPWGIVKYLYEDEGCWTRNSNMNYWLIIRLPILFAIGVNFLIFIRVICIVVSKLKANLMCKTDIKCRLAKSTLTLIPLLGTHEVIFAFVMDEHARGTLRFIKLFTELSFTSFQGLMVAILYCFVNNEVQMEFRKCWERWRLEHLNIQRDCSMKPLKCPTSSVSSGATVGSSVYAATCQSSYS
Assay: cAMP production in βTC6 cells expressing GLP-1R endogenously (Method C2)
Type: cell-based
Settings: for Potency (%), Table S1: from EC50 in βTC6 cAMP assay, footnote: compare to GLP-1-NH2 (2)

[1] = read-out: EC50 (GLP-1R potency), Table S1

| SMILES | Potency (%), Table S1 [%] | EC50 [1] [nM] | EC50 [nM] |
| --- | --- | --- | --- |
| CC[C@H](C)[C@H](NC(=O)[C@H](Cc1ccccc1)NC(=O)[C@H](CCC(=O)O)NC(=O)[C@H](CCCCN)NC(=O)[C@H](C)NC(=O)[C@H](C)NC(=O)[C@H](CCC(N)=O)NC(=O)CNC(=O)[C@H](CCC(=O)O)NC(=O)[C@H](CC(C)C)NC(=O)[C@H](Cc1ccc(O)cc1)NC(=O)[C@H](CO)NC(=O)[C@H](CO)NC(=O)[C@@H](NC(=O)[C@H](CC(=O)O)NC(=O)[C@H](CO)NC(=O)[C@@H](NC(=O)[C@H](Cc1ccccc1)NC(=O)[C@@H](NC(=O)CNC(=O)[C@H](CCC(=O)O)NC(=O)NC[C@H](CS)NC(=O)[C@@H](N)Cc1c[nH]cn1)[C@@H](C)O)[C@@H](C)O)C(C)C)C(=O)N[C@@H](C)C(=O)N[C@@H](Cc1c[nH]c2ccccc12)C(=O)N[C@@H](CC(C)C)C(=O)N[C@H](C(=O)N[C@@H](CCCCN)C(=O)NCC(=O)N[C@@H](CCCNC(=N)N)C(=O)NCC(N)=O)C(C)C [S3] | 0 | 65 | – |
| CC[C@H](C)[C@H](NC(=O)[C@H](Cc1ccccc1)NC(=O)[C@H](CCC(=O)O)NC(=O)[C@H](CCCCN)NC(=O)[C@H](C)NC(=O)[C@H](C)NC(=O)[C@H](CCC(N)=O)NC(=O)CNC(=O)[C@H](CCC(=O)O)NC(=O)[C@H](CC(C)C)NC(=O)[C@H](Cc1ccc(O)cc1)NC(=O)[C@H](CO)NC(=O)[C@H](CO)NC(=O)[C@@H](NC(=O)[C@H](CC(=O)O)NC(=O)[C@H](CO)NC(=O)[C@@H](NC(=O)[C@H](Cc1ccccc1)NC(=O)[C@@H](NC(=O)CNC(=O)[C@H](CCC(=O)O)NC(=O)NC[C@H](CCCCN)NC(=O)[C@@H](N)Cc1c[nH]cn1)[C@@H](C)O)[C@@H](C)O)C(C)C)C(=O)N[C@@H](C)C(=O)N[C@@H](Cc1c[nH]c2ccccc12)C(=O)N[C@@H](CC(C)C)C(=O)N[C@H](C(=O)N[C@@H](CCCCN)C(=O)NCC(=O)N[C@@H](CCCNC(=N)N)C(=O)NCC(N)=O)C(C)C [S8] | < 0.01 | > 10000 | – |
| CC[C@H](C)[C@H](NC(=O)[C@H](Cc1ccccc1)NC(=O)[C@H](CCC(=O)O)NC(=O)[C@H](CCCCN)NC(=O)[C@H](C)NC(=O)[C@H](C)NC(=O)[C@H](CCC(N)=O)NC(=O)CNC(=O)[C@H](CCC(=O)O)NC(=O)[C@H](CC(C)C)NC(=O)[C@H](Cc1ccc(O)cc1)NC(=O)[C@H](CO)NC(=O)[C@H](CO)NC(=O)[C@@H](NC(=O)[C@H](CC(=O)O)NC(=O)[C@H](CO)NC(=O)[C@@H](NC(=O)[C@H](Cc1ccccc1)NC(=O)[C@@H](NC(=O)CNC(=O)[C@H](CCC(=O)O)NC(=O)NC[C@H](CCC(=O)O)NC(=O)[C@@H](N)Cc1c[nH]cn1)[C@@H](C)O)[C@@H](C)O)C(C)C)C(=O)N[C@@H](C)C(=O)N[C@@H](Cc1c[nH]c2ccccc12)C(=O)N[C@@H](CC(C)C)C(=O)N[C@H](C(=O)N[C@@H](CCCCN)C(=O)NCC(=O)N[C@@H](CCCNC(=N)N)C(=O)NCC(N)=O)C(C)C [S5] | < 0.01 | > 10000 | – |
| CC[C@H](C)[C@H](NC(=O)[C@H](Cc1ccccc1)NC(=O)[C@H](CCC(=O)O)NC(=O)[C@H](CCCCN)NC(=O)[C@H](C)NC(=O)[C@H](C)NC(=O)[C@H](CCC(N)=O)NC(=O)CNC(=O)[C@H](CCC(=O)O)NC(=O)[C@H](CC(C)C)NC(=O)[C@H](Cc1ccc(O)cc1)NC(=O)[C@H](CO)NC(=O)[C@H](CO)NC(=O)[C@@H](NC(=O)[C@H](CC(=O)O)NC(=O)[C@H](CO)NC(=O)[C@@H](NC(=O)[C@H](Cc1ccccc1)NC(=O)[C@@H](NC(=O)CNC(=O)[C@H](CCC(=O)O)NC(=O)NC[C@@H](NC(=O)[C@@H](N)Cc1c[nH]cn1)[C@@H](C)O)[C@@H](C)O)[C@@H](C)O)C(C)C)C(=O)N[C@@H](C)C(=O)N[C@@H](Cc1c[nH]c2ccccc12)C(=O)N[C@@H](CC(C)C)C(=O)N[C@H](C(=O)N[C@@H](CCCCN)C(=O)NCC(=O)N[C@@H](CCCNC(=N)N)C(=O)NCC(N)=O)C(C)C [S10] | 3 | 3.3 | – |
| CC[C@H](C)[C@H](NC(=O)[C@H](Cc1ccccc1)NC(=O)[C@H](CCC(=O)O)NC(=O)[C@H](CCCCN)NC(=O)[C@H](C)NC(=O)[C@H](C)NC(=O)[C@H](CCC(N)=O)NC(=O)CNC(=O)[C@H](CCC(=O)O)NC(=O)[C@H](CC(C)C)NC(=O)[C@H](Cc1ccc(O)cc1)NC(=O)[C@H](CO)NC(=O)[C@H](CO)NC(=O)[C@@H](NC(=O)[C@H](CC(=O)O)NC(=O)[C@H](CO)NC(=O)[C@@H](NC(=O)[C@H](Cc1ccccc1)NC(=O)[C@@H](NC(=O)CNC(=O)[C@H](CCC(=O)O)NC(=O)NC[C@H](Cc1c[nH]c2ccccc12)NC(=O)[C@@H](N)Cc1c[nH]cn1)[C@@H](C)O)[C@@H](C)O)C(C)C)C(=O)N[C@@H](C)C(=O)N[C@@H](Cc1c[nH]c2ccccc12)C(=O)N[C@@H](CC(C)C)C(=O)N[C@H](C(=O)N[C@@H](CCCCN)C(=O)NCC(=O)N[C@@H](CCCNC(=N)N)C(=O)NCC(N)=O)C(C)C [S11] | 5 | – | 2.2 |
| CC[C@H](C)[C@H](NC(=O)[C@H](Cc1ccccc1)NC(=O)[C@H](CCC(=O)O)NC(=O)[C@H](CCCCN)NC(=O)[C@H](C)NC(=O)[C@H](C)NC(=O)[C@H](CCC(N)=O)NC(=O)CNC(=O)[C@H](CCC(=O)O)NC(=O)[C@H](CC(C)C)NC(=O)[C@H](Cc1ccc(O)cc1)NC(=O)[C@H](CO)NC(=O)[C@H](CO)NC(=O)[C@@H](NC(=O)[C@H](CC(=O)O)NC(=O)[C@H](CO)NC(=O)[C@@H](NC(=O)[C@H](Cc1ccccc1)NC(=O)[C@@H](NC(=O)CNC(=O)[C@H](CCC(=O)O)NC(=O)NC[C@H](Cc1ccccc1)NC(=O)[C@@H](N)Cc1c[nH]cn1)[C@@H](C)O)[C@@H](C)O)C(C)C)C(=O)N[C@@H](C)C(=O)N[C@@H](Cc1c[nH]c2ccccc12)C(=O)N[C@@H](CC(C)C)C(=O)N[C@H](C(=O)N[C@@H](CCCCN)C(=O)NCC(=O)N[C@@H](CCCNC(=N)N)C(=O)NCC(N)=O)C(C)C [S9] | 21 | 0.5 | – |
| CC[C@H](C)[C@H](NC(=O)[C@H](Cc1ccccc1)NC(=O)[C@H](CCC(=O)O)NC(=O)[C@H](CCCCN)NC(=O)[C@H](C)NC(=O)[C@H](C)NC(=O)[C@H](CCC(N)=O)NC(=O)CNC(=O)[C@H](CCC(=O)O)NC(=O)[C@H](CC(C)C)NC(=O)[C@H](Cc1ccc(O)cc1)NC(=O)[C@H](CO)NC(=O)[C@H](CO)NC(=O)[C@@H](NC(=O)[C@H](CC(=O)O)NC(=O)[C@H](CO)NC(=O)[C@@H](NC(=O)[C@H](Cc1ccccc1)NC(=O)[C@@H](NC(=O)CNC(=O)[C@H](CCC(=O)O)NC(=O)NC[C@H](CCC(N)=O)NC(=O)[C@@H](N)Cc1c[nH]cn1)[C@@H](C)O)[C@@H](C)O)C(C)C)C(=O)N[C@@H](C)C(=O)N[C@@H](Cc1c[nH]c2ccccc12)C(=O)N[C@@H](CC(C)C)C(=O)N[C@H](C(=O)N[C@@H](CCCCN)C(=O)NCC(=O)N[C@@H](CCCNC(=N)N)C(=O)NCC(N)=O)C(C)C [S4] | < 0.01 | > 10000 | – |

The next lines start with results.

| Potency (%), Table S1 [%] | EC50 [1] [nM] | SMILES | EC50 [nM] |
| --- | --- | --- | --- |
| < 0.01 | > 10000 | CC[C@H](C)[C@H](NC(=O)[C@H](Cc1ccccc1)NC(=O)[C@H](CCC(=O)O)NC(=O)[C@H](CCCCN)NC(=O)[C@H](C)NC(=O)[C@H](C)NC(=O)[C@H](CCC(N)=O)NC(=O)CNC(=O)[C@H](CCC(=O)O)NC(=O)[C@H](CC(C)C)NC(=O)[C@H](Cc1ccc(O)cc1)NC(=O)[C@H](CO)NC(=O)[C@H](CO)NC(=O)[C@@H](NC(=O)[C@H](CC(=O)O)NC(=O)[C@H](CO)NC(=O)[C@@H](NC(=O)[C@H](Cc1ccccc1)NC(=O)[C@@H](NC(=O)CNC(=O)[C@H](CCC(=O)O)NC(=O)NC[C@H](CC(C)C)NC(=O)[C@@H](N)Cc1c[nH]cn1)[C@@H](C)O)[C@@H](C)O)C(C)C)C(=O)N[C@@H](C)C(=O)N[C@@H](Cc1c[nH]c2ccccc12)C(=O)N[C@@H](CC(C)C)C(=O)N[C@H](C(=O)N[C@@H](CCCCN)C(=O)NCC(=O)N[C@@H](CCCNC(=N)N)C(=O)NCC(N)=O)C(C)C [S7] | – |
| < 0.01 | > 10000 | CC[C@H](C)[C@H](NC(=O)[C@H](Cc1ccccc1)NC(=O)[C@H](CCC(=O)O)NC(=O)[C@H](CCCCN)NC(=O)[C@H](C)NC(=O)[C@H](C)NC(=O)[C@H](CCC(N)=O)NC(=O)CNC(=O)[C@H](CCC(=O)O)NC(=O)[C@H](CC(C)C)NC(=O)[C@H](Cc1ccc(O)cc1)NC(=O)[C@H](CO)NC(=O)[C@H](CO)NC(=O)[C@@H](NC(=O)[C@H](CC(=O)O)NC(=O)[C@H](CO)NC(=O)[C@@H](NC(=O)[C@H](Cc1ccccc1)NC(=O)[C@@H](NC(=O)CNC(=O)[C@H](CCC(=O)O)NC(=O)NC[C@@H](NC(=O)[C@@H](N)Cc1c[nH]cn1)[C@@H](C)CC)[C@@H](C)O)[C@@H](C)O)C(C)C)C(=O)N[C@@H](C)C(=O)N[C@@H](Cc1c[nH]c2ccccc12)C(=O)N[C@@H](CC(C)C)C(=O)N[C@H](C(=O)N[C@@H](CCCCN)C(=O)NCC(=O)N[C@@H](CCCNC(=N)N)C(=O)NCC(N)=O)C(C)C [S6] | – |
| 42 | – | CC[C@H](C)[C@H](NC(=O)[C@H](Cc1ccccc1)NC(=O)[C@H](CCC(=O)O)NC(=O)[C@H](CCCCN)NC(=O)[C@H](C)NC(=O)[C@H](C)NC(=O)[C@H](CCC(N)=O)NC(=O)CNC(=O)[C@H](CCC(=O)O)NC(=O)[C@H](CC(C)C)NC(=O)[C@H](Cc1ccc(O)cc1)NC(=O)[C@H](CO)NC(=O)[C@H](CO)NC(=O)[C@@H](NC(=O)[C@H](CC(=O)O)NC(=O)[C@H](CO)NC(=O)[C@@H](NC(=O)[C@H](Cc1ccccc1)NC(=O)[C@@H](NC(=O)CNC(=O)[C@H](CCC(=O)O)NC(=O)CNC(=O)[C@@H](N)Cc1c[nH]cn1)[C@@H](C)O)[C@@H](C)O)C(C)C)C(=O)N[C@@H](C)C(=O)N[C@@H](Cc1c[nH]c2ccccc12)C(=O)N[C@@H](CC(C)C)C(=O)N[C@H](C(=O)N[C@@H](CCCCN)C(=O)NCC(=O)N[C@@H](CCCNC(=N)N)C(=O)NCC(N)=O)C(C)C [S12, reference compound] | – |
